Assays:
Type in all cases: physicochemical
[1] = Solubility of glycerol-containing formulations (post vortexing, 30 min and overnight at 18° C.); settings: glycerol-containing formulation, compound 2 mg/mL; for solubility at 30 min / solubility: 18 °C; for solubility at 30 min: after 30 minutes incubation at 18° C.; for solubility: overnight incubation at 18° C.; for solubility at 30 s: post vortexing
Method: (§1) Tables 3A, 3B, and 3C describe solubility experiments conducted with the indicated compounds under the listed conditions. Vortexing was conducted using a Denville Vortexer 59 (Denville Scientific Inc.), at maximum speed for 30 seconds. As used herein, the term overnight refers to a period lasting at least about 12-24 hours.

[2] = Solubility of BSA-containing formulations (post vortexing, 30 min and overnight at 18° C.); settings: BSA-containing formulation, aqueous with cosolvent or surfactant or cyclodextrin, compound 2 mg/mL; for solubility at 30 min / solubility: 18 °C; for solubility at 30 min: after 30 minutes incubation at 18° C.; for solubility: overnight incubation at 18° C.; for solubility at 30 s: post vortexing
Method: Vortexing was conducted using a Denville Vortexer 59 (Denville Scientific Inc.), at maximum speed for 30 seconds. As used herein, the term overnight refers to a period lasting at least about 12-24 hours.

[3] = Solubility of sodium deoxycholate-containing formulations (post vortexing, 30 min and overnight at 18° C.); settings: compound 2 mg/mL; for solubility at 30 s: post vortexing
Method: as §1, with “5A, 5B,” for “3A, 3B,”, “5C” for “3C”

## CCN1/C(=C/C=C/c2oc3ccccc3[n+]2CC)Oc2ccccc21 [JAC-R1, 3′,3′-Diethyloxacarbocyanine iodide]
[1]; aqueous with cosolvent or surfactant or cyclodextrin, 10% glycerol, read-out: Solubility of glycerol-containing formulations after 30 min incubation at 18° C., 10%
  solubility at 30 min: < 2 mg/mL
[1]; aqueous with cosolvent or surfactant or cyclodextrin, 10% glycerol, read-out: Solubility of glycerol-containing formulations after overnight incubation at 18° C., 10%
  solubility: < 2 mg/mL
[1]; aqueous with cosolvent or surfactant or cyclodextrin, 20% glycerol, read-out: Solubility of glycerol-containing formulations after 30 min incubation at 18° C., 20%
  solubility at 30 min: < 2 mg/mL
[1]; aqueous with cosolvent or surfactant or cyclodextrin, 20% glycerol, read-out: Solubility of glycerol-containing formulations after overnight incubation at 18° C., 20%
  solubility: < 2 mg/mL
[1]; aqueous with cosolvent or surfactant or cyclodextrin, 30% glycerol, read-out: Solubility of glycerol-containing formulations after 30 min incubation at 18° C., 30%
  solubility at 30 min: < 2 mg/mL
[1]; aqueous with cosolvent or surfactant or cyclodextrin, 30% glycerol, read-out: Solubility of glycerol-containing formulations after overnight incubation at 18° C., 30%
  solubility: < 2 mg/mL
[1]; aqueous with cosolvent or surfactant or cyclodextrin, 40% glycerol, read-out: Solubility of glycerol-containing formulations after 30 min incubation at 18° C., 40%
  solubility at 30 min: < 2 mg/mL
[1]; aqueous with cosolvent or surfactant or cyclodextrin, 40% glycerol, read-out: Solubility of glycerol-containing formulations after overnight incubation at 18° C., 40%
  solubility: < 2 mg/mL
[1]; aqueous with cosolvent or surfactant or cyclodextrin, 50% glycerol, read-out: Solubility of glycerol-containing formulations after 30 min incubation at 18° C., 50%
  solubility at 30 min: < 2 mg/mL
[1]; aqueous with cosolvent or surfactant or cyclodextrin, 50% glycerol, read-out: Solubility of glycerol-containing formulations after overnight incubation at 18° C., 50%
  solubility: < 2 mg/mL
[1]; 0% glycerol, read-out: Solubility of glycerol-containing formulations after 30 min incubation at 18° C., 0%
  solubility at 30 min: < 2 mg/mL
[1]; 0% glycerol, read-out: Solubility of glycerol-containing formulations after overnight incubation at 18° C., 0%
  solubility: < 2 mg/mL
[1]; aqueous with cosolvent or surfactant or cyclodextrin, 10% glycerol, read-out: Solubility of glycerol-containing formulations post vortexing, 10%
  solubility at 30 s: < 2 mg/mL
[1]; aqueous with cosolvent or surfactant or cyclodextrin, 20% glycerol, read-out: Solubility of glycerol-containing formulations post vortexing, 20%
  solubility at 30 s: < 2 mg/mL
[1]; aqueous with cosolvent or surfactant or cyclodextrin, 30% glycerol, read-out: Solubility of glycerol-containing formulations post vortexing, 30%
  solubility at 30 s: < 2 mg/mL
[1]; aqueous with cosolvent or surfactant or cyclodextrin, 40% glycerol, read-out: Solubility of glycerol-containing formulations post vortexing, 40%
  solubility at 30 s: < 2 mg/mL
[1]; aqueous with cosolvent or surfactant or cyclodextrin, 50% glycerol, read-out: Solubility of glycerol-containing formulations post vortexing, 50%
  solubility at 30 s: < 2 mg/mL
[1]; 0% glycerol, read-out: Solubility of glycerol-containing formulations post vortexing, 0%
  solubility at 30 s: < 2 mg/mL
[2]; BSA 40 mg/mL, read-out: Solubility of BSA-containing formulations after 30 min incubation at 18° C., 40 mg/mL
  solubility at 30 min: < 2 mg/mL
[2]; BSA 40 mg/mL, read-out: Solubility of BSA-containing formulations after overnight incubation at 18° C., 40 mg/mL
  solubility: < 2 mg/mL
[2]; BSA 60 mg/mL, read-out: Solubility of BSA-containing formulations after 30 min incubation at 18° C., 60 mg/mL
  solubility at 30 min: < 2 mg/mL
[2]; BSA 60 mg/mL, read-out: Solubility of BSA-containing formulations after overnight incubation at 18° C., 60 mg/mL
  solubility: < 2 mg/mL
[2]; BSA 80 mg/mL, read-out: Solubility of BSA-containing formulations after 30 min incubation at 18° C., 80 mg/mL
  solubility at 30 min: < 2 mg/mL
[2]; BSA 80 mg/mL, read-out: Solubility of BSA-containing formulations after overnight incubation at 18° C., 80 mg/mL
  solubility: < 2 mg/mL
[2]; BSA 100 mg/mL, read-out: Solubility of BSA-containing formulations after 30 min incubation at 18° C., 100 mg/mL
  solubility at 30 min: < 2 mg/mL
[2]; BSA 100 mg/mL, read-out: Solubility of BSA-containing formulations after overnight incubation at 18° C., 100 mg/mL
  solubility: < 2 mg/mL
[2]; BSA 40 mg/mL, read-out: Solubility of BSA-containing formulations post vortexing, 40 mg/mL
  solubility at 30 s: < 2 mg/mL
[2]; BSA 60 mg/mL, read-out: Solubility of BSA-containing formulations post vortexing, 60 mg/mL
  solubility at 30 s: < 2 mg/mL
[2]; BSA 80 mg/mL, read-out: Solubility of BSA-containing formulations post vortexing, 80 mg/mL
  solubility at 30 s: < 2 mg/mL
[2]; BSA 100 mg/mL, read-out: Solubility of BSA-containing formulations post vortexing, 100 mg/mL
  solubility at 30 s: < 2 mg/mL
[3]; sodium deoxycholate 50 mg/mL, after 30 minutes incubation at 18° C.
  Solubility of sodium deoxycholate-containing formulations after 30 min incubation at 18° C., 50 mg/mL: MFG
[3]; sodium deoxycholate 100 mg/mL, after 30 minutes incubation at 18° C.
  Solubility of sodium deoxycholate-containing formulations after 30 min incubation at 18° C., 100 mg/mL: MFG
[3]; sodium deoxycholate-containing formulation, aqueous with cosolvent or surfactant or cyclodextrin, sodium deoxycholate 12.5 mg/mL, read-out: Solubility of sodium deoxycholate-containing formulations post vortexing, 12.5 mg/mL
  solubility at 30 s: < 2 mg/mL
[3]; sodium deoxycholate-containing formulation, aqueous with cosolvent or surfactant or cyclodextrin, sodium deoxycholate 25 mg/mL, read-out: Solubility of sodium deoxycholate-containing formulations post vortexing, 25 mg/mL
  solubility at 30 s: < 2 mg/mL
[3]; sodium deoxycholate-containing formulation, aqueous with cosolvent or surfactant or cyclodextrin, sodium deoxycholate 50 mg/mL, read-out: Solubility of sodium deoxycholate-containing formulations post vortexing, 50 mg/mL
  solubility at 30 s: < 2 mg/mL
[3]; sodium deoxycholate-containing formulation, aqueous with cosolvent or surfactant or cyclodextrin, sodium deoxycholate 100 mg/mL, read-out: Solubility of sodium deoxycholate-containing formulations post vortexing, 100 mg/mL
  solubility at 30 s: < 2 mg/mL
[3]; sodium deoxycholate-containing formulation, aqueous with cosolvent or surfactant or cyclodextrin, sodium deoxycholate 12.5 mg/mL, after 30 minutes incubation at 18° C.
  solubility at 30 min: < 2 mg/mL
[3]; sodium deoxycholate-containing formulation, aqueous with cosolvent or surfactant or cyclodextrin, sodium deoxycholate 12.5 mg/mL, overnight incubation at 18° C., read-out: Solubility of sodium deoxycholate-containing formulations after overnight incubation at 18° C., 12.5 mg/mL
  solubility: > 2 mg/mL

Reference: patent US20230150960A1, “COMPOSITIONS AND METHODS OF USING CYANINE DYES TO TARGET CANCER AND MITOCHONDRIA” (Thomas Jefferson University, priority 2020, published 2023)
